Test results: patent US20250332173A1, “COMPOUNDS AND METHODS FOR MODULATING NUCLEIC ACID SPLICING” (REMIX THERAPEUTICS INC., priority 2021, published 2025)

Key:
[1] = test system: MYB; experiment: HiBiT protein abundance assay, MYB HiBiT K562 cell line; format: cell-based, human; conditions: HiBiT K562 cell line, 24 hours, top dose 10 μM; read-out: Effect on protein abundance, MYB (IC50 category)
Procedure, shortened: (§1)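 K562 knock-in lines with endogenous HiBiT-tagged target, 10,000 cells/well in IMDM + FBS, treated 24 h at 37° C with 10-point 3-fold dilutions (top 10 μM final; DMSO ≤0.25%). Lytic Nano-Glo HiBiT luminescence normalized to untagged K562 baseline and DMSO controls; IC50 = concentration giving 50% abundance via four-parameter fit.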

[2] = test system: Target C; experiment: HiBiT protein abundance assay, Target C (Promega Nano-Glo HiBiT Lytic Detection System, knock-in K562 cell line); format: cell-based, human; conditions: Homo sapiens, K562, 24 h, HiBiT K562 cell line, 24 hours, top dose 10 μM; read-out: Effect on protein abundance, Target C (IC50 category)
Procedure, shortened: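 Knock-in K562 cells carrying HiBiT-tagged Target C, 10,000 per well, treated 24 h at 37 °C with 10-point threefold dilutions (top 10 μM final, ≤0.25% DMSO). Lytic HiBiT luminescence read; response normalised to unmodified K562 and DMSO controls, four-parameter fit interpolated at 50% for IC50.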

[3] = test system: HTT; experiment: HiBiT protein abundance assay, HTT HiBiT K562 cell line; format: cell-based, human; conditions: HiBiT K562 cell line, 24 hours, top dose 10 μM; read-out: Effect on protein abundance, HTT (IC50 category)
Procedure, shortened: as §1

[4] = test system: K562 (human chronic myelogenous leukemia) cells; experiment: Cell Titer Glo 2.0 cell viability assay; format: cell-based; conditions: Homo sapiens, K562, 72 h, K562 cells, 72 hours, Cell Titer Glo 2.0; read-out: K562 GI50

| SMILES | IC50 [1] | IC50 [2] | IC50 [3] | GI50 [4] |
| --- | --- | --- | --- | --- |
| Cc1cn2cc(-c3cc(F)c4c(=O)n([C@@H]5CCNC5)ccc4c3)cc(F)c2n1 (single isomer, unassigned) [Compound 395] | 100 to 1000 nM | 1000 to 10000 nM | 100 to 1000 nM | 100 to 1000 nM |
| Cc1cn2cc(-c3ccc4c(=O)n([C@@H]5CCCNC5)ccc4c3)cc(F)c2n1 (single isomer, unassigned) [Compound 403] | 100 to 1000 nM | 1000 to 10000 nM | 1000 to 10000 nM | 1000 to 10000 nM |
| Cc1cn2nc(-c3cc(F)c4c(=O)n([C@@H]5CCNC6(CC6)C5)ccc4c3)cc(C)c2n1 (single isomer, unassigned) [Compound 425] | < 100 nM | < 100 nM | < 100 nM | < 100 nM |
| Cc1cn2nc(-c3ccc4c(=O)n([C@@H]5CCNC6(CC6)C5)ncc4c3)cc(C)c2n1 (stereo in doubt) [Compound 368, 2-[(7R)-4-azaspiro[2.5]octan-7-yl]-6-{2,8-dimethylimidazo[1,2-b]pyridazin-6-yl}phthalazin-1-one] | < 100 nM | < 100 nM | < 100 nM | 100 to 1000 nM |
| Cc1cn2nc(-c3cc(C)c4c(=O)n(C5CCNC6(CC6)C5)ccc4c3)cc(C)c2n1 (stereo in doubt) [Compound 397, (S)-6-(2,8-dimethylimidazo[1,2-b]pyridazin-6-yl)-8-methyl-2-(4-azaspiro[2.5]octan-7-yl)isoquinolin-1(2H)-one] | < 100 nM | < 100 nM | < 100 nM | 100 to 1000 nM |
| Cc1cn2nc(-c3cc(C)c4c(=O)n(C5CCNC6(CC6)C5)ccc4c3)cc(C)c2n1 (stereo in doubt) [Compound 398, (R)-6-(2,8-dimethylimidazo[1,2-b]pyridazin-6-yl)-8-methyl-2-(4-azaspiro[2.5]octan-7-yl)isoquinolin-1(2H)-one] | < 100 nM | < 100 nM | < 100 nM | < 100 nM |
| Cc1cn2nc(-c3ccc4c(=O)n(C5CCCNC5)ccc4c3)cc(C)c2n1 (stereo in doubt) [Compound 411, 6-{2,8-dimethylimidazo[1,2-b]pyridazin-6-yl}-2-[(3R)-piperidin-3-yl]isoquinolin-1-one] | 1000 to 10000 nM | 1000 to 10000 nM | 1000 to 10000 nM | 1000 to 10000 nM |
| Cc1cn2cc(-c3cc(F)c4c(=O)n(C5CCOC5)cnc4c3)cc(C#N)c2n1 (stereo in doubt) [Compound 500, (S)-6-(5-fluoro-4-oxo-3-(tetrahydrofuran-3-yl)-3,4-dihydroquinazolin-7-yl)-2-methylimidazo[1,2-a]pyridine-8-carbonitrile] | 100 to 1000 nM | 100 to 1000 nM | 100 to 1000 nM | 100 to 1000 nM |
| Cn1cc2cc(-n3cnc4cc(C5=CC6CCC(C5)N6)ccc4c3=O)ccc2n1 (stereo not shown) [Compound 160] | > 10000 nM | > 10000 nM | > 10000 nM | > 10000 nM |
| CN1C2C=C(c3ccc4c(=O)n(-c5ccc6nn(C)cc6c5)cnc4c3)CC1CC2 (stereo not shown) [Compound 161] | > 10000 nM | > 10000 nM | > 10000 nM | > 10000 nM |
| Cn1cc2cc(-n3cnc4cc(NC5CCNCC5)ccc4c3=O)ccc2n1 [Compound 162] | > 10000 nM | > 10000 nM | > 10000 nM | – |
| Cn1cc2cc(-n3cnc4cc(C5CCNCC5)ccc4c3=O)ccc2n1 [Compound 172] | > 10000 nM | > 10000 nM | > 10000 nM | 1000 to 10000 nM |
| Cc1cc(-c2ccc3c(=O)n(C4CCNCC4)cnc3c2)cc2cn(C)nc12 [Compound 174] | < 100 nM | 100 to 1000 nM | 100 to 1000 nM | 100 to 1000 nM |
| Cc1cc(-c2ccc3c(=O)n(C4CCNC5(COC5)C4)cnc3c2)cc2cn(C)nc12 (stereo not shown) [Compound 375] | 1000 to 10000 nM | 1000 to 10000 nM | 1000 to 10000 nM | 1000 to 10000 nM |

Now from value to compound:

| IC50 [1] | IC50 [2] | IC50 [3] | GI50 [4] | SMILES |
| --- | --- | --- | --- | --- |
| 100 to 1000 nM | 100 to 1000 nM | 100 to 1000 nM | 100 to 1000 nM | Cc1cn2cc(-c3cc(F)c4c(=O)n([C@H]5CCNC5)ccc4c3)cc(F)c2n1 (single isomer, unassigned) [Compound 396] |
| < 100 nM | < 100 nM | < 100 nM | < 100 nM | Cc1cn2nc(-c3cc(F)c4c(=O)n([C@H]5CCNC6(CC6)C5)ccc4c3)cc(C)c2n1 (single isomer, unassigned) [Compound 426] |
| 100 to 1000 nM | 1000 to 10000 nM | 1000 to 10000 nM | 1000 to 10000 nM | Cc1cn2nc(-c3cc(F)c4c(=O)n(C5CCNC5)ccc4c3)cc(C)c2n1 (stereo in doubt) [Compound 382, (R)-6-(2,8-dimethylimidazo[1,2-b]pyridazin-6-yl)-8-fluoro-2-(pyrrolidin-3-yl)isoquinolin-1(2H)-one] |
| 100 to 1000 nM | 1000 to 10000 nM | 1000 to 10000 nM | 1000 to 10000 nM | Cc1cn2nc(-c3cc(F)c4c(=O)n(C5CCNC5)ccc4c3)cc(C)c2n1 (stereo in doubt) [Compound 392, (S)-6-(2,8-dimethylimidazo[1,2-b]pyridazin-6-yl)-8-fluoro-2-(pyrrolidin-3-yl)isoquinolin-1(2H)-one] |
| 100 to 1000 nM | 1000 to 10000 nM | 100 to 1000 nM | 1000 to 10000 nM | Cc1cn2nc(-c3ccc4c(=O)n(C5CCCNC5)ccc4c3)cc(C)c2n1 (stereo in doubt) [Compound 410, 6-{2,8-dimethylimidazo[1,2-b]pyridazin-6-yl}-2-[(3S)-piperidin-3-yl]isoquinolin-1-one] |
| 100 to 1000 nM | 100 to 1000 nM | 100 to 1000 nM | 100 to 1000 nM | Cc1cn2cc(-c3cc(F)c4c(=O)n(C5CCOC5)cnc4c3)cc(C#N)c2n1 (stereo in doubt) [Compound 499, (R)-6-(5-fluoro-4-oxo-3-(tetrahydrofuran-3-yl)-3,4-dihydroquinazolin-7-yl)-2-methylimidazo[1,2-a]pyridine-8-carbonitrile] |
| > 10000 nM | > 10000 nM | > 10000 nM | > 10000 nM | CN1CCC(Nc2ccc3c(=O)n(-c4ccc5nn(C)cc5c4)cnc3c2)CC1 [Compound 163] |
| > 10000 nM | > 10000 nM | > 10000 nM | 1000 to 10000 nM | Cc1cc(-c2ccc3c(=O)n(C4CCN(C)CC4)cnc3n2)cc2cn(C)nc12 [Compound 173] |
| > 10000 nM | > 10000 nM | > 10000 nM | > 10000 nM | Cc1cn2cc(-c3cc(N)c4c(=O)n(C5CCNCC5)cnc4c3)cc(C#N)c2n1 [Compound 364, 6-[5-amino-4-oxo-3-(piperidin-4-yl)quinazolin-7-yl]-2-methylimidazo[1,2-a]pyridine-8-carbonitrile] |
| 1000 to 10000 nM | > 10000 nM | > 10000 nM | > 10000 nM | Cn1cc2c(n1)CCN(c1cc(F)c3c(=O)n(C4CCNCC4)cnc3c1)C2 [Compound 365, 5-fluoro-7-(2-methyl-2,4,6,7-tetrahydro-5H-pyrazolo[4,3-c]pyridin-5-yl)-3-(piperidin-4-yl)quinazolin-4(3H)-one] |
| 1000 to 10000 nM | 1000 to 10000 nM | 1000 to 10000 nM | 1000 to 10000 nM | Cc1cn2cc(-c3cc(F)c4c(=O)n(C5CCOC5)cnc4c3)cc(C#N)c2n1 (stereo not shown) [Compound 366, 6-[5-fluoro-4-oxo-3-(oxolan-3-yl)quinazolin-7-yl]-2-methylimidazo[1,2-a]pyridine-8-carbonitrile] |
| 100 to 1000 nM | 100 to 1000 nM | 100 to 1000 nM | 100 to 1000 nM | Cc1cn2cc(-c3cc(F)c4c(=O)n(C5CCOCC5)cnc4c3)cc(C#N)c2n1 [Compound 367, 6-[5-fluoro-3-(oxan-4-yl)-4-oxoquinazolin-7-yl]-2-methylimidazo[1,2-a]pyridine-8-carbonitrile] |
| 1000 to 10000 nM | 1000 to 10000 nM | 100 to 1000 nM | 1000 to 10000 nM | Cc1cn2nc(-c3ccc4c(=O)n([C@H]5CCNC6(CC6)C5)ncc4c3)cc(C)c2n1 [Compound 369, 2-[(7S)-4-azaspiro[2.5]octan-7-yl]-6-{2,8-dimethylimidazo[1,2-b]pyridazin-6-yl}phthalazin-1-one] |
| < 100 nM | < 100 nM | < 100 nM | < 100 nM | Cc1cn2cc(-c3cc(F)c4c(=O)n(C5CCNCC5)ccc4c3)cc(F)c2n1 [Compound 370] |
| 100 to 1000 nM | 1000 to 10000 nM | 100 to 1000 nM | 1000 to 10000 nM | Cc1cn2nc(-c3ccc4c(=O)n([C@H]5CCNC[C@H]5F)cnc4c3)cc(C)c2n1 [Compound 372] |
| 1000 to 10000 nM | 1000 to 10000 nM | 1000 to 10000 nM | 1000 to 10000 nM | Cc1cc(-c2ccc3c(=O)n([C@@H]4CCNC[C@H]4F)ncc3c2)cc2cn(C)nc12 [Compound 378] |
| 100 to 1000 nM | 100 to 1000 nM | 100 to 1000 nM | 1000 to 10000 nM | Cc1cn2nc(-c3ccc4c(=O)n([C@@H]5CCNC[C@H]5F)ncc4c3)cc(C)c2n1 [Compound 379] |
| < 100 nM | < 100 nM | < 100 nM | 100 to 1000 nM | Cc1cn2nc(-c3cc(F)c4c(=O)n(C5CCNC6(CC6)C5)ccc4c3)cc(C)c2n1 (stereo not shown) [Compound 380, 6-(2,8-dimethylimidazo[1,2-b]pyridazin-6-yl)-8-fluoro-2-(4-azaspiro[2.5]octan-7-yl)isoquinolin-1(2H)-one] |
